# According to patent US9000037B2, “Precursors of glutamate derivatives” (Piramal Imaging SA, priority 2011, dated 2015):
# Experiments:
# [1] = 19F-fluorination of precursors, reaction rates; assay type: physicochemical; conditions: for krel (relative reaction rate): 19F-fluorination, slowest reaction (If) defined as 1; for reaction rate of 19F-fluorination, in words: comparison among precursors
# Experimental: Precursor (0.01 mmol) was dissolved in acetonitrile (0.5 mL), and 1.0 M TBAF/acetonitrile solution (20 μL, 0.02 mmol) was added. The reaction mixture was stirred at 80° C. for 2 h. 40 μL of solution was taken at 5, 10, 20, 40, 60, 90, and 120 min for HPLC analysis (method A4).
# ^19F-Fluorination was performed as described in “General procedures”. The progress of the reaction was examined after 5, 10, 20, 40, 60, 90, and 120 min. Plotting the percentage of the conversation versus the time, the reaction rates were calculated.
# [2] = Stability of example compounds in solid form (HPLC); assay type: physicochemical; conditions: for Solid (%) Start: purity by HPLC before the study; for Solid (%) 1 week 0° C. / Solid (%) 1 week −20° C. / Solid (%) 2 week 0° C. / Solid (%) 2 week −20° C. / Solid (%) 3 week 0° C. / Solid (%) 3 week −20° C. / Solid (%) 4 week 0° C. / Solid (%) 4 week −20° C.: amber vial under Ar; for Solid (%) 2 week 0° C. / Solid (%) 2 week −20° C.: 2 weeks; for Solid (%) 3 week 0° C. / Solid (%) 3 week −20° C.: 3 weeks; for Solid (%) 4 week 0° C. / Solid (%) 4 week −20° C.: 4 weeks
# Experimental: Method A1 (analytics of di-tert-butyl (4S)-4-(3-hydroxypropyl)-N-trityl-L-glutamate • Column: ChiralPak IA, 4.6×250 mm • Mobile phase: 5% IPA/n-heptane • Flow rate: 1 mL/min • Wavelength: 214/254 nm Method A2 (for Id) • Column: X-Bridge • Mobile phase: Acetonitrile/water 20:80 to 100% water • Flow rate: 1 mL/min • Wavelength: 214 nm Method A3 (for Ia to Ic and Ie to II) • Column: X-Bridge • Mobile phase: Acetonitrile/water […] to 100% water • Flow rate: 1 mL/min • Wavelength: 214 nm Method A4 (^19F-fluorination) • Column: Phenomenex Lux 5U Amylose-2 • Mobile phase: 10% IPA/Hex • Flow rate: 1 mL/min • Wavelength: 214 nm Method A5 (^18F-radiolabeling) • Column: Phenomenex Luna 5μ C18(2); 250*4.6 mm • Mobile phase: A: Na2HPO4 10 mM pH 7.4, B: acetonitrile • Gradient: 0 min 12% B, 15 min 12% B, 16 min 100% B, 18 min 100% B, 20 min 12% B, 23 min 12% B • Flow rate: 1.2 mL/min • Wavelength: 340 nm • Derivatization: […] of the product solution are mixed with […] OPA reagent (Thermo Scientific, No.:26015). After 1 min reaction at room temperature the solution is applied to the HPLC
# The stability of the compounds of formula I were examined in solid form at two different temperatures: 0° C., and −20° C. The precursors were tested weekly for 4 weeks. Before the study, purities of the precursors were determined individually by HPLC analysis.
# 1. Solid state: 3-5 mg of the respective precursor Ia to Ij were put into 8 amber vials, which were flushed with Ar gas and capped. Each four vials containing precursor were stored at 0° C., and −20° C. Every week for 4 weeks, 1 mg of precursor was dissolved in acetonitrile (1.0 mL). 10 μL of solution was injected into HPLC (method A2 or A3, respectively).
# tumor = conditions: cited from earlier work
SMILES,krel (relative reaction rate) [1],Solid (%) Start [2],Solid (%) 1 week 0° C. [2],Solid (%) 1 week −20° C. [2],Solid (%) 2 week 0° C. [2],Solid (%) 2 week −20° C. [2],Solid (%) 3 week 0° C. [2],Solid (%) 3 week −20° C. [2],Solid (%) 4 week 0° C. [2],Solid (%) 4 week −20° C. [2],results in first clinical studies (tumor; compared with [18F]-4-fluoro-glutamic acid),detection of lung cancer (tumor; first clinical studies),"reaction rate of 19F-fluorination, in words [1]",tumor uptake (tumor; first clinical studies),defluorination (tumor; in vivo)
"CC(C)(C)OC(=O)[C@@H](CCCOS(=O)(=O)c1ccc(-c2ccccc2)cc1)C[C@H](NC(c1ccccc1)(c1ccccc1)c1ccccc1)C(=O)OC(C)(C)C [Ic, Di-tert-butyl (4S)-4-{3-[(biphenyl-4-ylsulfonyl)oxy]propyl}-N-trityl-L-glutamate]",2.93,98.8%,98.6%,98.6%,98.6%,98.7%,98.6%,96.9%,98.4%,98.0%,–,–,–,–,–
N[C@@H](C[C@H](CCC[18F])C(=O)O)C(=O)O [(S)-4-(3-[^18F]Fluoropropyl)-L-glutamic acid],–,–,–,–,–,–,–,–,–,–,Superior results,Very good results,–,–,–
"CC(C)(C)OC(=O)[C@@H](CCCOS(=O)(=O)c1c(Cl)cc(Cl)cc1Cl)C[C@H](NC(c1ccccc1)(c1ccccc1)c1ccccc1)C(=O)OC(C)(C)C [Ii, Di-tert-butyl (4S)-4-(3-{[(2,4,6-trichlorophenyl)sulfonyl]oxy}propyl)-N-trityl-L-glutamate]",1.88,97.2%,89.5%,89.6%,97.0%,97.0%,96.7%,95.6%,95.9%,93.2%,–,–,–,–,–
"CC(C)(C)OC(=O)[C@@H](CCCOS(=O)(=O)c1ccc([N+](=O)[O-])c(C(F)(F)F)c1)C[C@H](NC(c1ccccc1)(c1ccccc1)c1ccccc1)C(=O)OC(C)(C)C [Ih, Di-tert-butyl (4S)-4-[3-({[4-nitro-3-(trifluoromethyl)phenyl]sulfonyl}oxy)propyl]-N-trityl-L-glutamate]",–,97.6%,94.4%,94.6%,95.0%,94.8%,93.1%,93.1%,93.4%,92.8%,–,–,–,–,–
"CC(C)(C)OC(=O)[C@@H](CCCOS(=O)(=O)c1cccc2cccnc12)C[C@H](NC(c1ccccc1)(c1ccccc1)c1ccccc1)C(=O)OC(C)(C)C [If, Di-tert-butyl (4S)-4-{3-[(quinolin-8-ylsulfonyl)oxy]propyl}-N-trityl-L-glutamate]",1.0,90.5%,89.5%,89.6%,89.0%,88.5%,89.0%,88.3%,89.0%,87.0%,–,–,slowest reaction,–,–
"CC(C)(C)OC(=O)[C@@H](CCCOS(=O)(=O)c1ccc([N+](=O)[O-])cc1)C[C@H](NC(c1ccccc1)(c1ccccc1)c1ccccc1)C(=O)OC(C)(C)C [Ia, Di-tert-butyl (4S)-4-(3-{[(4-nitrophenyl)sulfonyl]oxy}propyl)-N-trityl-L-glutamate]",6.93,99.4%,99.5%,99.4%,99.3%,99.2%,99.1%,99.0%,98.7%,98.4%,–,–,Fastest conversion,–,–
N[C@@H](CC([18F])C(=O)O)C(=O)O (some centres unmarked) [[^18F]-4-fluoro-glutamic acid],–,–,–,–,–,–,–,–,–,–,–,–,–,good tumor uptake,some defluorination was detected
"CC(C)(C)OC(=O)[C@@H](CCCOS(=O)(=O)c1cccc([N+](=O)[O-])c1)C[C@H](NC(c1ccccc1)(c1ccccc1)c1ccccc1)C(=O)OC(C)(C)C [Ib, Di-tert-butyl (4S)-4-(3-{[(3-nitrophenyl)sulfonyl]oxy}propyl)-N-trityl-L-glutamate]",9.86,96.7%,96.5%,96.6%,94.6%,94.8%,95.0%,93.7%,91.3%,94.3%,–,–,Fastest conversion,–,–
"CC(C)(C)OC(=O)[C@@H](CCCOS(=O)(=O)c1cccc2ccccc12)C[C@H](NC(c1ccccc1)(c1ccccc1)c1ccccc1)C(=O)OC(C)(C)C [Ie, Di-tert-butyl (4S)-4-{3-[(1-naphthylsulfonyl)oxy]propyl}-N-trityl-L-glutamate]",2.45,99.1%,99.0%,98.9%,99.0%,99.0%,99.0%,98.6%,98.6%,97.9%,–,–,–,–,–
"CC(C)(C)OC(=O)[C@@H](CCCOS(=O)(=O)c1ccc(-c2ccc(S(=O)(=O)OCCC[C@@H](C[C@H](NC(c3ccccc3)(c3ccccc3)c3ccccc3)C(=O)OC(C)(C)C)C(=O)OC(C)(C)C)cc2)cc1)C[C@H](NC(c1ccccc1)(c1ccccc1)c1ccccc1)C(=O)OC(C)(C)C [Ig, Tetra-tert-butyl (2S,4S,2′S,4′S)-2,2′-[biphenyl-4,4′-diylbis(sulfonyloxypropane-3,1-diyl)]bis[4-(tritylamino)pentanedioate]]",11.8,97.9%,97.9%,98.0%,98.0%,98.1%,97.9%,97.9%,97.8%,97.5%,–,–,Fastest conversion,–,–
"CC(C)(C)OC(=O)[C@@H](CCCOS(=O)(=O)c1ccc2ccccc2c1)C[C@H](NC(c1ccccc1)(c1ccccc1)c1ccccc1)C(=O)OC(C)(C)C [Id, Di-tert-butyl (4S)-4-{3-[(2-naphthylsulfonyl)oxy]propyl}-N-trityl-L-glutamate]",2.38,99.8%,99.8%,99.8%,–,–,99.8%,99.8%,99.8%,99.8%,–,–,–,–,–
